Reference: the NIST ThermoML archive (doi:10.1021/je4003916)
Numbers after ± are expanded uncertainties.

Key:
[1] = xn = mol fraction of the nth substance listed; conditions: 101 kPa, Liquid, x2 = 0; for mass density: Vibrating tube method
[2] = 293.15 K; 101.33 kPa; Liquid; Vibrating tube method
[3] = refractive index (Na D-line) (dimensionless); xn = mol fraction of the nth substance listed; conditions: 101 kPa, Liquid, Dipping refractometry (monochromatic), x2 = 0

CCCCO [butan-1-ol] + COC(=O)CCCCC(=O)OC
[1], stabinger viscometer
Conditions	viscosity [mPa·s]
288.15 K	3.375 ± 0.009
293.15 K	2.945 ± 0.008
298.15 K	2.581 ± 0.007
303.15 K	2.272 ± 0.007
308.15 K	2.008 ± 0.006
313.15 K	1.782 ± 0.005
318.15 K	1.587 ± 0.005
323.15 K	1.419 ± 0.005

COC(=O)CCCCC(=O)OC [dimethyl 1,6-hexanedioate]
Conditions	mass density [kg/m3]
[2]	1061.93 ± 0.28

CCCCO [butan-1-ol] + C1CCOC1
Conditions	mass density, [1] [kg/m3]	refractive index, [3]	viscosity, [1] [mPa·s]
288.15 K	813.37 ± 0.14	1.4014 ± 0.0002	3.375 ± 0.03
293.15 K	809.57 ± 0.14	1.3993 ± 0.0002	2.945 ± 0.027
298.15 K	805.76 ± 0.14	1.3973 ± 0.0002	2.581 ± 0.025
303.15 K	801.92 ± 0.14	1.3952 ± 0.0002	2.272 ± 0.023
308.15 K	798.05 ± 0.14	1.3932 ± 0.0002	2.008 ± 0.021
313.15 K	794.15 ± 0.14	1.3911 ± 0.0002	1.782 ± 0.019
318.15 K	790.23 ± 0.14	1.389 ± 0.0002	1.587 ± 0.018
323.15 K	786.24 ± 0.15	1.3869 ± 0.0002	1.419 ± 0.017
